Measured values as given in US7582655B2, “Antineoplastic compounds” (University of Saskatchewan, priority 2005, dated 2009).
Where two headings read alike, the source gives them in different places.

Key:
[1] = system: human squamous cell carcinomas HSC-4; test: Cytotoxicity CC50, MTT assay, HSC-4
Description: (§1) In addition, the compounds were evaluated against human squamous cell carcinomas (HSC-2 and HSC-4) and human promyelocytic leukemia neoplasms (HL-60) and compared with normal cells, i.e. human gingival fibroblasts (HGF), human pulp cells (HPC) and human periodontal ligament fibroblasts (HPLF).
(§2) MTT stands for 3-(4,5-dimethylthiazol-2-yl)-2,5-diphenyltetrazolium bromide). The cells were incubated with varying concentrations of the compounds along with untreated cells for 24 h and the absorbance at 540 nm measured. In the case of the HL-60 assay, the trypan blue exclusion method was followed and cell viability was determined using a haemocytometer. The CC50 values were obtained from dose-response curves (Sakagami, H.; Satoh, K.; Ohata, H.; Takahashi, H.; Yoshida, H.; Iida, M.; Kuribayashi, N.; Sakagami, T.; Momose, K.; Takeda, M. Anticancer Res. 1996, 16, 2635-2644). The general methods used in culturing the cells employed in these cytotoxicity experiments have been described previously (Kawase, M.; Sakagami, H.; Motohashi, N.; Hauer, H.; Chatterjee, S. S.; Spengler, G.; Vigyikanne, A. V.; Molnár, A.; Molnár, J. In Vivo 2005, 19, 705-712; and Takeuchi, R.; Hoshijima, H.; Onuki, N.; Nagasaka, H.; Chowdhury, S. A.; Kawase, M.; Sakagami, H. Anticancer Res. 2005, 25, 4037-4042). In brief, the malignant cells were obtained from Professor Nagumo, Showa University, Japan. The HGF, HPC and HPLF cells were prepared from human periodontal tissue after obtaining informed consent according to the guidelines of Meikai University Ethics Committee, Japan (No. 0206). Since normal cells have a short lifespan, cells at the 3-7 population doubling time were used. With the exception of the HL-60 neoplasm, the cells were cultured in DMEM containing heat-inactivated FBS (10%) at 37° C. in a humidified carbon dioxide atmosphere and subcultured by trypsinization. The HL-60 cells were cultured in a similar fashion except that RPMI 1640 media was employed.

KM 12 = test: Human tumour cell line panel, colon cancer KM 12; assay type: cell-based; conditions: read-out: Colon cancer cells, IC50(μM) KM 12
Description: (§3) In addition, both 5-fluorouracil and melphalan were evaluated towards 57 cell lines. […] MG MID is the average of the potencies of the compound to approximately 50 neoplastic cell lines.

[2] = system: human squamous cell carcinomas HSC-2; test: Cytotoxicity CC50, MTT assay, HSC-2
Description: as §1, §2

HCT 116 = test: Human tumour cell line panel, colon cancer HCT 116; assay type: cell-based; conditions: 48 h; read-out: Colon cancer cells, IC50(μM) HCT 116
Description: as §3

SW 620 = test: Human tumour cell line panel, colon cancer SW 620; assay type: cell-based; conditions: 48 h; read-out: Colon cancer cells, IC50(μM) SW 620
Description: as §3

COLO 205 = test: Human tumour cell line panel, colon cancer COLO 205; assay type: cell-based; conditions: 48 h; read-out: Colon cancer cells, IC50(μM) COLO 205
Description: as §3

HCT 15 = test: Human tumour cell line panel, colon cancer HCT 15; assay type: cell-based; conditions: 48 h; read-out: Colon cancer cells, IC50(μM) HCT 15
Description: as §3

K 562 = test: Human tumour cell line panel, leukemic K 562; assay type: cell-based; conditions: 48 h; read-out: Leukemic cells, IC50(μM) K 562
Description: as §3

[3] = system: human periodontal ligament fibroblasts (HPLF); test: Cytotoxicity CC50, MTT assay, normal HPLF cells
Description: as §1, §2

[4] = system: HSC-2, HSC-4 and HL-60 malignant cells; test: Average CC50 for malignant cells
Description: as §1, §2

[5] = system: human gingival fibroblasts (HGF); test: Cytotoxicity CC50, MTT assay, normal HGF cells
Description: as §1, §2

[6] = system: human promyelocytic leukemia HL-60; test: Cytotoxicity CC50, trypan blue exclusion, HL-60
Description: as §1, §2

human tumour cell lines = test: Panel of human tumour cell lines, all cell lines (mean graph midpoint); assay type: cell-based; conditions: mean graph midpoint, average of 49 (38-59) human tumour cell lines, 48 h incubation; read-out: All cell lines IC50
Description: A number of compounds of the invention were further assessed against numerous human malignant cell lines. An average of 49 cell lines from nine different neoplastic diseases, namely leukemia, melanoma, non-small cell lung, colon, central nervous system, ovarian, renal, prostate, and breast cancers were employed.
as §3

RPMI 8226 = test: Human tumour cell line panel, leukemic RPMI 8226; assay type: cell-based; conditions: 48 h; read-out: Leukemic cells, IC50(μM) RPMI 8226
Description: as §3

human pulp cells (HPC) = test: Cytotoxicity CC50, MTT assay, normal HPC cells
Description: as §1, §2

[7] = system: murine L-5178 lymphoma cells transfected with the human MDR1 gene; test: MDR reversal, rhodamine 123 fluorescence activity ratio; conditions: FAR >1 indicates MDR reversal; for FAR value 4 μg/ml: compound 4 μg/ml; for FAR value 40 μg/ml: compound 40 μg/ml
Description: A solution of the test compound (2 mg/ml, 10 μl) in dimethylsulfoxide was added to aliquots of the cell suspension and incubated at room temperature for 10 minutes. […] The cells were washed twice and resuspended in PBS (pH 7.4) after which the fluorescence was measured using a Beckton Dickinson FACScan instrument. The fluorescence of the cells was measured in treated MDR cells (F1), untreated MDR cells (F2), treated parental cells (F3) […] were obtained from the following equation, viz (F1/F2)/(F3/F4).

HL 60 = test: Human tumour cell line panel, leukemic HL 60; assay type: cell-based; conditions: 48 h; read-out: Leukemic cells, IC50(μM) HL 60
Description: as §3

[8] = read-out: CC50(μM) HSC-4, 24 h, MTT, average of two determinations
[9] = read-out: CC50(μM) HSC-2, 24 h, MTT, average of two determinations
[10] = read-out: CC50(μM) HPLF, normal cells, 24 h, MTT
[11] = average CC50 for HSC-2, HSC-4 and HL-60 malignant cells
[12] = read-out: CC50(μM) HGF, normal cells, 24 h, MTT
[13] = read-out: CC50(μM) HL-60, 24 h, trypan blue exclusion, average of two determinations
[14] = read-out: CC50(μM) HPC, normal cells, 24 h, MTT

Molecule	CC50 [1, 8]	CC50 [2, 9]	CC50 [3, 10]	CC50(μM) ave [4, 11]	CC50 [5, 12]	CC50 [6, 13]	CC50 (human pulp cells (HPC); [14])	CC50(μM) ave [4]	FAR value 4 μg/ml [7]	FAR value 40 μg/ml [7]	CC50 [1]	CC50 [2]	CC50 [3]	CC50 [5]	CC50 [6]	CC50 (human pulp cells (HPC))	further results
1-[4-(2-Diethylaminoethoxy)phenylcarbonyl]-3,5-bis(phenylmethylene)-4-piperidone hydrochloride hemihydrate [Compound 4a]	2 µM	3.1 µM	6 µM	1.9 µM	4.2 µM	0.61 µM	12 µM										IC50 (KM 12): 1.74 µM; IC50 (HCT 116): < 0.01 µM; IC50 (SW 620): 1.35 µM; IC50 (COLO 205): 2.63 µM; IC50 (HCT 15): 1.17 µM; IC50 (K 562): 0.043 µM; IC50 (human tumour cell lines): < 1.38 µM; IC50 (RPMI 8226): < 0.01 µM
Cc1ccc(C=C2CN(C(=O)c3ccc(OCCN4CCCCC4)cc3)CC(=Cc3ccc(C)cc3)C2=O)cc1.Cc1ccc(C=C2CN(C(=O)c3ccc(OCCN4CCCCC4)cc3)CC(=Cc3ccc(C)cc3)C2=O)cc1.Cl.Cl.O [Compound 5d]								3.1 µM	179	146							
CC[N+](C)(CC)CCOc1ccc(C(=O)N2CC(=Cc3ccc(Cl)cc3)C(=O)C(=Cc3ccc(Cl)cc3)C2)cc1.[I-] [Compound 7b, 3,5-bis(4-Chlorophenylmethylene)-1-[4-(2-diethylaminoethoxy)phenylcarbonyl]-4-piperidone methoiodide]									1.21	1.85	220 µM	> 400 µM	9.4 µM	> 400 µM	64 µM	> 400 µM	CC50 [4]: ≥ 228 µM
O=C1C(=Cc2ccc(Cl)cc2)CNCC1=Cc1ccc(Cl)cc1 [Compound 1b]								20 µM	1.25	0.91	20 µM	18 µM	56 µM	69 µM	22 µM	130 µM	
Cc1ccc(C=C2CN(C(=O)c3ccc(OCCN4CCCCC4)cc3)CC(=Cc3ccc(C)cc3)C2=O)cc1.Cc1ccc(C=C2CN(C(=O)c3ccc(OCCN4CCCCC4)cc3)CC(=Cc3ccc(C)cc3)C2=O)cc1.Cl.Cl.O [Compound 5d, 3,5-bis(4-Methylphenylmethylene)-1-[4-{1-piperidinyl)ethoxy}phenylcarbonyl]-4-piperidone hydrochloride hemihydrate]											4.1 µM	2.9 µM	5.5 µM	6 µM	2.3 µM	15 µM	IC50 (KM 12; 48 h): 0.148 µM; IC50 (HL 60): 0.933 µM; IC50 (HCT 116): 1.58 µM; IC50 (SW 620): 0.339 µM; IC50 (COLO 205): 6.92 µM; IC50 (HCT 15): 1.07 µM; IC50 (K 562): 0.589 µM; IC50 (human tumour cell lines): 1.38 µM; IC50 (RPMI 8226): 0.123 µM
1-[4-(2-Dimethylaminoethoxy)phenylcarbonyl]-3,5-bis(4-nitrophenylmethylene)-4-piperidone hydrochloride hemihydrate [Compound 3c]	0.71 µM	0.93 µM	5.9 µM		7 µM	0.31 µM	5.2 µM										
Cl.Cl.O.O.O.O=C1C(=Cc2ccc([N+](=O)[O-])cc2)CN(C(=O)c2ccc(OCCN3CCCCC3)cc2)CC1=Cc1ccc([N+](=O)[O-])cc1.O=C1C(=Cc2ccc([N+](=O)[O-])cc2)CN(C(=O)c2ccc(OCCN3CCCCC3)cc2)CC1=Cc1ccc([N+](=O)[O-])cc1 [Compound 5c, 3,5-bis(4-Nitrophenylmethylene)-1-[4-{2-(1-piperidinyl)ethoxy}phenylcarbonyl]-4-piperidone hydrochloride 1.5 hydrate]									145	51.5	0.9 µM	0.86 µM	4.9 µM	8 µM	0.29 µM	3.9 µM	
1-[4-{2-(4-Morpholinyl)ethoxy}phenylcarbonyl]-3,5-bis(4-nitrophenylmethylene)-4-piperidone hydrochloride hemihydrate [Compound 6c]	0.74 µM	0.76 µM	9.3 µM		12 µM	0.35 µM	8.2 µM										
CC[N+](C)(CC)CCOc1ccc(C(=O)N2CC(=Cc3ccc([N+](=O)[O-])cc3)C(=O)C(=Cc3ccc([N+](=O)[O-])cc3)C2)cc1.[I-] [Compound 7c, 1-[4-(2-Diethylaminoethoxy)phenylcarbonyl]-3,5-bis(4-nitrophenylmethylene)-4-piperidone methoiodide]								52 µM	1.03	1.22	61 µM	67 µM	13 µM	93 µM	29 µM	130 µM	
Cl.O=C1C(=Cc2ccc(Cl)cc2)CN(C(=O)c2ccc(OCCN3CCOCC3)cc2)CC1=Cc1ccc(Cl)cc1 [Compound 6b]								42 µM	76.0	6.88							
1-[4-{2-(1-Piperidinyl)ethoxy}phenylcarbonyl]-3,5-bis(phenylmethylene)-4-piperidone hydrochloride hemihydrate [Compound 5a]	2.5 µM	3 µM	7.4 µM	2.3 µM	4.6 µM	1.4 µM	12 µM										
[4-(2-Dimethylaminoethoxy)phenylcarbonyl]-3,5-bis(phenylmethylene)-4-piperidone hydrochloride [Compound 3a]	2.1 µM	3.8 µM		2.3 µM					45.5	51.6			8.9 µM		1 µM		
1-[4-{2-(4-Morpholinyl)ethoxy}phenylcarbonyl]-3,5-bis(phenylmethylene)-4-piperidone hydrochloride hemihydrate [Compound 6a]	2.4 µM	2.4 µM	30 µM	2.0 µM	83 µM	1.2 µM	95 µM										IC50 (KM 12): 0.129 µM; IC50 (HL 60): 0.562 µM; IC50 (HCT 116): 0.339 µM; IC50 (SW 620): 0.191 µM; IC50 (COLO 205): 22.9 µM; IC50 (HCT 15): 1.45 µM; IC50 (K 562): 0.158 µM; IC50 (human tumour cell lines): > 2.63 µM; IC50 (RPMI 8226): 0.123 µM
